Some test systems named below: SF-539 CNS; UACC-62 melanoma; SK-OV-3 ovarian; NCI-H522 lung; A549 NSCLC; RXF 393 renal; ACHN renal; SK-MEL-2 melanoma; 786-0 renal; MALME-3M melanoma.
What all share (assay): NCI-60 cell line screen, 48 h

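1) Cells in 96-well plates. 2) Compound, 48 h, 5 concentrations. 3) Linear interpolation between surrounding doses. 4) Unreached endpoint = highest concentration. GI50 is the concentration that inhibits growth by half. Definition used: TGI = concentration required for complete inhibition of growth.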

For `c1ccc2nc3c(cc4ccccn43)nc2c1`, the GI50 in the test on SF-539 CNS was 36.7 µM; in the test on UACC-62 melanoma, 17.4 µM; in the test on SK-OV-3 ovarian, 97.4 µM; in the test on NCI-H522 lung it was 21.5 µM; with A549 NSCLC it was 77.4 µM; in the test on RXF 393 renal, 30.1 µM. Further, the GI50 was 60.2 µM in the test with ACHN renal, 43.8 µM with SK-MEL-2 melanoma and 35.7 µM in the test with 786-0 renal. Besides, the TGI in the test with SF-539 CNS, in the test on UACC-62 melanoma, in the test on SK-OV-3 ovarian, with NCI-H522 lung, with A549 NSCLC and in the test on RXF 393 renal was above 100 µM each time. The TGI in the test on ACHN renal, in the test on SK-MEL-2 melanoma and with 786-0 renal was above 100 µM in each case.
Regarding `CCN(CC)CC(=O)N1CCc2c([nH]c3ccccc23)C1c1cccnc1` (centres undefined), the TGI in the test with SF-539 CNS, in the test with UACC-62 melanoma, in the test with SK-OV-3 ovarian, in the test on NCI-H522 lung, with A549 NSCLC and with ACHN renal was above 100 µM each time. The molecule also registered a TGI with 786-0 renal above 100 µM.
With `O=c1ncccn1C1C=C(CO)C(O)C1O` (centres undefined), the TGI with SF-539 CNS, in the test on SK-OV-3 ovarian, in the test with MALME-3M melanoma, in the test with NCI-H522 lung, in the test on A549 NSCLC and in the test with ACHN renal was above 50 µM throughout. In addition, the TGI in the test with SK-MEL-2 melanoma and with 786-0 renal was above 50 µM in each case.
As for `CCOC(=O)/C(=C/c1cccc(OC)c1)N(CC)CC`, the TGI in the test with SF-539 CNS, in the test with UACC-62 melanoma, in the test with SK-OV-3 ovarian, with NCI-H522 lung, with A549 NSCLC and in the test with ACHN renal was above 100 µM each time. In addition, the TGI in the test on SK-MEL-2 melanoma and with 786-0 renal was above 100 µM throughout.
Take `CC1(C)OC2COC3(CNO)OC(C)(C)OC3C2O1` (centres undefined): the TGI in the test with SF-539 CNS, in the test with UACC-62 melanoma, in the test on SK-OV-3 ovarian, in the test on MALME-3M melanoma, in the test on A549 NSCLC and in the test with RXF 393 renal was above 100 µM in each case. Further, the TGI in the test with ACHN renal, with SK-MEL-2 melanoma and in the test on 786-0 renal was above 100 µM in each case.
Regarding `C[C@H]1[C@H](C)CC[C@]2(C(=O)NCCNCCN)CC[C@]3(C)C(=CC[C@@H]4[C@@]5(C)CCC(=O)C(C)(C)[C@@H]5CC[C@]43C)[C@H]12`, the GI50 is 1.68 µM in the test with SF-539 CNS; 1.6 µM in the test on UACC-62 melanoma; 6.91 µM in the test on SK-OV-3 ovarian; 1.64 µM with MALME-3M melanoma; 1.76 µM in the test with ACHN renal; 1.98 µM in the test with SK-MEL-2 melanoma. The GI50 in the test with 786-0 renal is 1.74 µM. Also, the TGI amounted to 3.05 µM in the test with SF-539 CNS; 2.96 µM in the test on UACC-62 melanoma; 33.2 µM in the test with SK-OV-3 ovarian; 3.06 µM with MALME-3M melanoma; 3.27 µM with ACHN renal; 4.29 µM in the test on SK-MEL-2 melanoma. The molecule further yielded a TGI with 786-0 renal of 3.18 µM.
As to `CC(=O)N(C(C)=O)C1=C2c3ccccc3N(S(=O)(=O)c3ccccc3)C2n2c(=O)n(-c3ccccc3)c(=O)n2C1` (centres undefined), the TGI with SF-539 CNS was 38.5 µM; in the test with UACC-62 melanoma, 35.8 µM; in the test with SK-OV-3 ovarian, above 100 µM; in the test on MALME-3M melanoma, 46.5 µM; with NCI-H522 lung it was 39.5 µM; with A549 NSCLC, above 100 µM. In addition, the TGI was above 100 µM with ACHN renal, 47.5 µM in the test with SK-MEL-2 melanoma and above 100 µM in the test with 786-0 renal.
Regarding `COC(=O)/C(C#N)=C1\CCC(C(=O)OC)N1C` (centres undefined), the TGI in the test with SF-539 CNS, with UACC-62 melanoma, in the test on SK-OV-3 ovarian, in the test with NCI-H522 lung, in the test on A549 NSCLC and in the test with RXF 393 renal was above 100 µM in each case. Besides, the TGI in the test with SK-MEL-2 melanoma and with 786-0 renal was above 100 µM throughout.
Take `CCCCCCCCCCCCCC(=O)OCC1OC(=O)CC1O` (centres undefined): the TGI in the test on SF-539 CNS, in the test with UACC-62 melanoma, in the test with SK-OV-3 ovarian, in the test on MALME-3M melanoma, in the test on A549 NSCLC and in the test on RXF 393 renal was above 100 µM in each case. The TGI with ACHN renal, in the test on SK-MEL-2 melanoma and in the test on 786-0 renal was above 100 µM each time.
With `O=c1c2c3c(sc2n2c(-c4cc(-c5ccccc5)nn4-c4ccccc4)nnc2n1Cc1ccccc1)CCCC3`, the GI50 with SF-539 CNS, with UACC-62 melanoma, in the test on SK-OV-3 ovarian, with MALME-3M melanoma, in the test with A549 NSCLC and with ACHN renal was above 100 µM each time. Also, the GI50 in the test with SK-MEL-2 melanoma and with 786-0 renal was above 100 µM each time. The TGI in the test on SF-539 CNS, in the test on UACC-62 melanoma, in the test with SK-OV-3 ovarian, in the test on MALME-3M melanoma, in the test on A549 NSCLC and in the test with ACHN renal was above 100 µM in each case. The TGI in the test with SK-MEL-2 melanoma and in the test on 786-0 renal was above 100 µM in each case.
With `Cn1c(/C(C#N)=C/c2ccc3ccccc3c2)cc2ccccc21`, the GI50 in the test with SF-539 CNS is 0.101 µM; with UACC-62 melanoma, 0.0425 µM; in the test with SK-OV-3 ovarian, above 100 µM; in the test on A549 NSCLC, 0.247 µM; with RXF 393 renal, 0.0507 µM; in the test with ACHN renal it was 0.125 µM. The GI50 is 6.28 µM in the test with SK-MEL-2 melanoma and 0.424 µM in the test with 786-0 renal. Also, the TGI is 0.941 µM with SF-539 CNS; above 100 µM in the test with UACC-62 melanoma; above 100 µM with SK-OV-3 ovarian; above 100 µM in the test with A549 NSCLC; 0.474 µM with RXF 393 renal; above 100 µM in the test with ACHN renal. The TGI in the test on SK-MEL-2 melanoma and in the test with 786-0 renal was above 100 µM throughout.
On to `CC(CC(=O)Nc1ccc(NC(=O)CC(C)N=NC(N)=S)cc1)N=NC(N)=S` (centres undefined), for which the TGI in the test with SF-539 CNS, in the test on UACC-62 melanoma, in the test on MALME-3M melanoma, in the test on A549 NSCLC, in the test on RXF 393 renal and with ACHN renal was above 100 µM each time. The TGI in the test with SK-MEL-2 melanoma and in the test on 786-0 renal was above 100 µM throughout.
Turning to `O=C(NC12CC3CC(CC(C3)C1)C2)C(=O)c1c[nH]c2ccc(Cl)cc12`, the TGI in the test with SF-539 CNS, in the test on UACC-62 melanoma, with SK-OV-3 ovarian, in the test with MALME-3M melanoma, with NCI-H522 lung and in the test on A549 NSCLC was above 100 µM each time. For the same molecule, the TGI with ACHN renal was above 100 µM; with SK-MEL-2 melanoma, 89.4 µM; in the test with 786-0 renal, 34.6 µM.

For the origin of these results see PubChem BioAssay (NCI).
